# Patent US12686873B2, “Plants having increased tolerance to herbicides” (priority 2012, dated 2026)
# Where “and” joins values, the source holds several entries; their conditions need not be identical. Equal values may be shown once.
# How the values were obtained:
# [1] = tested on: Chlamydomonas reinhardtii strains; assay: Selection and dose-response of Chlamydomonas reinhardtii strains
# [2] = tested on: transgenic T1 Arabidopsis plants; assay: Transgenic T1 Arabidopsis greenhouse tolerance study (injury rating); conditions: SEQ_ID 2 & 4, L397D, F420V
# [3] = tested on: Soy; assay: Tolerance rates for soybean (injury score 0-9); conditions: Soy
smiles,measurement,setting,value
C#CCN1C(=O)C(F)(F)Oc2cc(F)c(-n3c(=O)n(C)c(=S)n(C)c3=O)cc21,growth of mutagenized cells plated on solid medium containing the herbicide,"[1]; 1×10^−7 M in solid medium, FIG. 2B",susceptible cells do not grow
same,IC50 of mutagenized cells (strain 17) compared to Wild-type cells,"[1]; dose-response curve, FIG. 3B versus FIG. 3A",much lower IC50
same,"Injury Rating 0-100% (0 = no injury, 100 = total control)","[2]; 75 g/Ha + 1% MSO, 7 DAT, Line 1",98%
same,"Injury Rating 0-100% (0 = no injury, 100 = total control)","[2]; 75 g/Ha + 1% MSO, 7 DAT, Line 2",100%
same,"Injury Rating 0-100% (0 = no injury, 100 = total control)","[2]; 75 g/Ha + 1% MSO, 7 DAT, Line 3",80%
same,"Injury Rating 0-100% (0 = no injury, 100 = total control)","[2]; 75 g/Ha + 1% MSO, 19 DAT, Line 1",95%
same,"Injury Rating 0-100% (0 = no injury, 100 = total control)","[2]; 75 g/Ha + 1% MSO, 19 DAT, Line 2",100%
same,"Injury Rating 0-100% (0 = no injury, 100 = total control)","[2]; 75 g/Ha + 1% MSO, 19 DAT, Line 3",95%
same,"Injury Rating 0-100% (0 = no injury, 100 = total control)","[2]; 150 g/Ha + 1% MSO, 7 DAT, Line 1",30%
same,"Injury Rating 0-100% (0 = no injury, 100 = total control)","[2]; 150 g/Ha + 1% MSO, 7 DAT, Line 2",98%
same,"Injury Rating 0-100% (0 = no injury, 100 = total control)","[2]; 150 g/Ha + 1% MSO, 7 DAT, Line 3",98%
same,"Injury Rating 0-100% (0 = no injury, 100 = total control)","[2]; 150 g/Ha + 1% MSO, 19 DAT, Line 1",65%
same,"Injury Rating 0-100% (0 = no injury, 100 = total control)","[2]; 150 g/Ha + 1% MSO, 19 DAT, Line 2",100%
same,"Injury Rating 0-100% (0 = no injury, 100 = total control)","[2]; 150 g/Ha + 1% MSO, 19 DAT, Line 3",100%
same,"Injury Rating 0-100% (0 = no injury, 100 = total control)","[2]; 300 g/Ha + 1% MSO, 7 DAT, Line 1",100%
same,"Injury Rating 0-100% (0 = no injury, 100 = total control)","[2]; 300 g/Ha + 1% MSO, 7 DAT, Line 2",30%
same,"Injury Rating 0-100% (0 = no injury, 100 = total control)","[2]; 300 g/Ha + 1% MSO, 7 DAT, Line 3",35%
same,"Injury Rating 0-100% (0 = no injury, 100 = total control)","[2]; 300 g/Ha + 1% MSO, 19 DAT, Line 1",98%
same,"Injury Rating 0-100% (0 = no injury, 100 = total control)","[2]; 300 g/Ha + 1% MSO, 19 DAT, Line 2",60%
same,"Injury Rating 0-100% (0 = no injury, 100 = total control)","[2]; 300 g/Ha + 1% MSO, 19 DAT, Line 3",80%
same,injury score,"[3]; 1,5-dimethyl-6-thioxo-3-(...)-1,3,5-triazinane-2,4-dione 12.5 g ai/ha, amino acid substitution F420L, SEQ ID NO 2",2 and 1
same,injury score,"[3]; 1,5-dimethyl-6-thioxo-3-(...)-1,3,5-triazinane-2,4-dione 12.5 g ai/ha, amino acid substitution L369D, F392V, SEQ ID NO 40",8 and 5 and 7 and 6 and 4
same,injury score,"[3]; 1,5-dimethyl-6-thioxo-3-(...)-1,3,5-triazinane-2,4-dione 12.5 g ai/ha, amino acid substitution L397D, F420V, SEQ ID NO 2",2
same,injury score,"[3]; 1,5-dimethyl-6-thioxo-3-(...)-1,3,5-triazinane-2,4-dione 12.5 g ai/ha, amino acid substitution L397E, SEQ ID NO 2",5 and 7 and 6 and 4 and 8
same,injury score,"[3]; 1,5-dimethyl-6-thioxo-3-(...)-1,3,5-triazinane-2,4-dione 12.5 g ai/ha, amino acid substitution L397Q, SEQ ID NO 2",7
same,injury score,"[3]; 1,5-dimethyl-6-thioxo-3-(...)-1,3,5-triazinane-2,4-dione 12.5 g ai/ha, amino acid substitution none, SEQ ID NO 2",3 and 7 and 6 and 5
same,injury score,"[3]; 1,5-dimethyl-6-thioxo-3-(...)-1,3,5-triazinane-2,4-dione 12.5 g ai/ha, amino acid substitution none, SEQ ID NO 40",8 and 6 and 7 and 9
same,injury score,"[3]; 1,5-dimethyl-6-thioxo-3-(...)-1,3,5-triazinane-2,4-dione 25 g ai/ha, amino acid substitution F420L, SEQ ID NO 2",9 and 1 and 3 and 4 and 5
same,injury score,"[3]; 1,5-dimethyl-6-thioxo-3-(...)-1,3,5-triazinane-2,4-dione 25 g ai/ha, amino acid substitution F420M, SEQ ID NO 2",4 and 1 and 5 and 8
same,injury score,"[3]; 1,5-dimethyl-6-thioxo-3-(...)-1,3,5-triazinane-2,4-dione 25 g ai/ha, amino acid substitution L369D, F392V, SEQ ID NO 40",9 and 8 and 6 and 7 and 4
same,injury score,"[3]; 1,5-dimethyl-6-thioxo-3-(...)-1,3,5-triazinane-2,4-dione 25 g ai/ha, amino acid substitution L397D, F420V, SEQ ID NO 2",5
same,injury score,"[3]; 1,5-dimethyl-6-thioxo-3-(...)-1,3,5-triazinane-2,4-dione 25 g ai/ha, amino acid substitution L397D, SEQ ID NO 2",8 and 4 and 5
same,injury score,"[3]; 1,5-dimethyl-6-thioxo-3-(...)-1,3,5-triazinane-2,4-dione 25 g ai/ha, amino acid substitution L397E, F420M, SEQ ID NO 2",2 and 1 and 0
same,injury score,"[3]; 1,5-dimethyl-6-thioxo-3-(...)-1,3,5-triazinane-2,4-dione 25 g ai/ha, amino acid substitution L397E, SEQ ID NO 2",5 and 8 and 6 and 7
same,injury score,"[3]; 1,5-dimethyl-6-thioxo-3-(...)-1,3,5-triazinane-2,4-dione 25 g ai/ha, amino acid substitution L397Q, F420M, SEQ ID NO 2",3 and 7 and 2 and 0 and 6
same,injury score,"[3]; 1,5-dimethyl-6-thioxo-3-(...)-1,3,5-triazinane-2,4-dione 25 g ai/ha, amino acid substitution L397Q, F420V, SEQ ID NO 2",4 and 6
same,injury score,"[3]; 1,5-dimethyl-6-thioxo-3-(...)-1,3,5-triazinane-2,4-dione 25 g ai/ha, amino acid substitution L397Q, SEQ ID NO 2",9
same,injury score,"[3]; 1,5-dimethyl-6-thioxo-3-(...)-1,3,5-triazinane-2,4-dione 25 g ai/ha, amino acid substitution none, SEQ ID NO 2",5 and 7 and 6 and 8
same,injury score,"[3]; 1,5-dimethyl-6-thioxo-3-(...)-1,3,5-triazinane-2,4-dione 25 g ai/ha, amino acid substitution none, SEQ ID NO 40",9 and 6 and 7 and 8
same,injury score,"[3]; 1,5-dimethyl-6-thioxo-3-(...)-1,3,5-triazinane-2,4-dione 50 g ai/ha, amino acid substitution F420L, SEQ ID NO 2",6
same,injury score,"[3]; 1,5-dimethyl-6-thioxo-3-(...)-1,3,5-triazinane-2,4-dione 50 g ai/ha, amino acid substitution F420M, SEQ ID NO 2",3 and 4 and 2 and 5 and 9
same,injury score,"[3]; 1,5-dimethyl-6-thioxo-3-(...)-1,3,5-triazinane-2,4-dione 50 g ai/ha, amino acid substitution L369D, F392V, SEQ ID NO 40",8 and 7
same,injury score,"[3]; 1,5-dimethyl-6-thioxo-3-(...)-1,3,5-triazinane-2,4-dione 50 g ai/ha, amino acid substitution L397D, F420V, SEQ ID NO 2",4
same,injury score,"[3]; 1,5-dimethyl-6-thioxo-3-(...)-1,3,5-triazinane-2,4-dione 50 g ai/ha, amino acid substitution L397D, SEQ ID NO 2",9 and 5 and 8 and 4 and 6
same,injury score,"[3]; 1,5-dimethyl-6-thioxo-3-(...)-1,3,5-triazinane-2,4-dione 50 g ai/ha, amino acid substitution L397E, F420M, SEQ ID NO 2",2 and 1
same,injury score,"[3]; 1,5-dimethyl-6-thioxo-3-(...)-1,3,5-triazinane-2,4-dione 50 g ai/ha, amino acid substitution L397Q, F420M, SEQ ID NO 2",2 and 7 and 3 and 4 and 6 and 5 and 1
same,injury score,"[3]; 1,5-dimethyl-6-thioxo-3-(...)-1,3,5-triazinane-2,4-dione 50 g ai/ha, amino acid substitution L397Q, F420V, SEQ ID NO 2",5 and 7
same,injury score,"[3]; 1,5-dimethyl-6-thioxo-3-(...)-1,3,5-triazinane-2,4-dione 75 g ai/ha, amino acid substitution L397E, F420M, SEQ ID NO 2",2 and 3 and 1
same,injury score,"[3]; 1,5-dimethyl-6-thioxo-3-(...)-1,3,5-triazinane-2,4-dione 75 g ai/ha, amino acid substitution L397Q, F420M, SEQ ID NO 2",3 and 7 and 8 and 4 and 5 and 6 and 2
same,injury score,"[3]; 1,5-dimethyl-6-thioxo-3-(...)-1,3,5-triazinane-2,4-dione 75 g ai/ha, amino acid substitution L397Q, F420V, SEQ ID NO 2",5 and 7
